Reference: patent publication US11224627B2, “Method for culturing cells of Acrochaetium moniliforme red algae, method for obtaining an extract of the biomass thereof, and use of same in cosmetics” (SOCIETE D'EXPLOITATION DE PRODUITS POUR LES INDUSTRIES …, priority 2016, dated 2022)
Marks after values point to notes of the source that are not given here.

Columns and labels:
[1] = tested on: 5-α-reductase enzyme; assay: Production of dihydrotestosterone (DHT) from testosterone in a cellular model, revealing 5-α-reductase activity; format: cell-based, human; conditions: 2 μM
Description: This model is a cellular model, that is more robust than models on purified enzyme.
Human fibroblasts of the dermal follicular papilla (person) were seeded into collagen-coated culture plates in the presence of a specific growth medium. After three days, they were pretreated for 24 hours with the positive reference [Finasteride (F) at 2 μM and 1 μM] and each of the algal extracts to be tested (Table 2). The fibroblasts were then stimulated with testosterone at 0.5 μM before undergoing a post-treatment for 24 hours. Each test was carried out in sextuplicate.
The viability was measured using a WST-8 reagent and the conversion of the testosterone was then evaluated by measuring the intracellular concentration of (DHT). The viability was expressed relative to that of the control without testosterone (control T0). The amount of (DHT) was standardized relative to the viability results and then related to the control condition with testosterone (0.5 μM) control (T1) in order to calculate a percentage effect, and also related to the control conditions without testosterone in order to calculate a percentage protection.

[2] = tested on: Human fibroblasts of the dermal follicular papilla; assay: Viability measured using WST-8 reagent; format: cell-based; conditions: 2 μM

## CC(C)(C)NC(=O)[C@H]1CC[C@H]2[C@@H]3CC[C@H]4NC(=O)C=C[C@]4(C)[C@H]3CC[C@]12C [F, Finasteride]
[1]; DHT standardized relative to viability (WST-8 OD)
  DHT Standardized concentration (pg/ml/AU): 5.68 +/− 0.91^(a) pg/ml/AU
[1]; intracellular DHT, testosterone 0.5 μM
  DHT Concentration (pg/ml): 12.38 +/− 2.35^(a) pg/ml
[1]; related to control without testosterone (T0 = 100%, T1 = 0%)
  DHT Restoration: 46%*
[1]; relative to control with testosterone 0.5 μM (T1)
  DHT Effect: −28%*
[2]; fibroblasts stimulated with testosterone 0.5 μM, 24 h pre- and 24 h post-treatment
  WST-8 OD (AU): 2.19 +/− 0.27^(a) AU
[2]; relative to control without testosterone (T0)
  WST-8 Viability: 93%^(a)
